One assay has as its system HEK293 cells. The assay can be described thus: Redox-based assay to assess HEK293 viability. The class given is cell-based, human. To be noted: 48 hours exposure; highest test concentration 87 μM; EdU value estimated, relative to Emax plateau of 57%. As for the experimental part:
To determine the effect of the nucleoside analogues against a replicating mammalian cell line, analogues were tested against HEK293 cells, utilising a REDOX-based metabolic assay to assess cell viability as previously described. […] Experiments were performed over two biological replicates.

Another assay has as its system 3T3 cells. The experiment in a line: Image-based assay, effect on 3T3 host cells. It counts as cell-based. To be noted: 48 h; highest test concentration 183 μM. The method, then:
(§1) Parasites and host cells were maintained as outlined previously. Briefly, host 3T3 fibroblasts (ATCC, CCL-92) were grown in RPMI medium (Thermo Fisher Scientific, USA) with no phenol red, supplemented with 10% FBS (Thermo Fisher Scientific, USA) and incubated at 37°C in 5% CO2. Host cells were harvested at 70% confluency and were split every 2–3 days in 175 cm^2 flasks. 3T3 cells were cultured up to passage 7 as contact inhibition was reduced or lost at higher passages. Prior to infection with T. cruzi trypomastigotes, host cells were seeded at 1.2 x 10^6 cells in 75 cm^2 or 4 x 10^5 cells in 25 cm^2 flasks and grown for 24 hours before parasite addition. Parasites were added at a multiplicity of infection (MOI) of 10:1 and incubated for 24 hours before non-infected trypomastigotes were washed off the host cell bed with PBS supplemented with Ca^2+ and Mg^2+ (Thermo Fisher Scientific, USA). Incubation was continued for a further 3 days, until tissue culture trypomastigotes began to egress from host cells. Egressed parasites were used for assays or to continue the infective life cycle in vitro.
[…] Briefly, 14-point serial dilutions of the compounds in 100% DMSO were prepared and then further diluted in sterile water at a ratio of 1:21 compound: water. Five microliters of the diluted compounds were added to wells of T. cruzi infected host cells, using a MiniTrak compound handling device (Perkin Elmer, USA) with final concentrations in the plate ranging from 183 μM to 4.6 x 10^−4 μM. All experiments were performed with two separate biological replicates.
Image analysis was performed with a script developed in Columbus software (CHEMICAL LABEL INCORPORATION SCRIPT). Control wells were also imaged at an increased, 60x magnification to show the distribution of staining and the structure of the parasites within host cells. Eight background control wells consisted of infected host cells, fixed and exposed to Hoechst and the click chemistry cocktail, without the addition of the chemical probe EdU. […] The percentage activity of compounds against parasite number / infected cells (identified with Hoechst) was calculated against a positive control of 12 μM of NFX for the parasite and 30 μM of PURO the host cells; and a negative control of 0.47% DMSO. All images taken were not modified and were taken on an Opera, confocal image-based reader.

A further assay concerns T. cruzi amastigote DNA. The assay can be described thus: Incorporation of pyrimidine nucleoside analogues into T. cruzi amastigote DNA (click chemistry, colocalisation with Hoechst). The class given is cell-based, Trypanosoma cruzi. As for the experimental part: T. cruzi infected 3T3 fibroblasts were initially exposed to nucleoside analogues for 48 hours at concentrations ranging from 73 μM to 1.8 x10^-4 μM. Host cell, parasite and compound additions were carried out as previously described. Cells were then stained using a click chemistry azide cocktail, followed by Hoechst to identify nuclear material, as previously reported. The freshly prepared azide cocktail consisted of a final concentration of 5 μM of Alexa Fluor 488 azide (Thermo Fisher Scientific, USA), 1 mM copper sulfate (Sigma Aldrich, USA) and 100 mM sodium ascorbate (Sigma Aldrich, USA), in DPBS. Wells were imaged on an Opera image-based reader (Perkin Elmer, USA) at 20x magnification with 405 nm (defined as Hoechst channel) and 488 nm (defined as Alexa 488 channel) lasers using filter sets/bandwidth (emission) of 450/50 nm and 540/75 nm, respectively. To determine nucleoside analogue incorporation into T. cruzi amastigote DNA, a script was developed utilising the Columbus (PerkinElmer, USA) image-based analysis and data handling platform (CHEMICAL LABEL INCORPORATION SCRIPT). Nucleoside analogues were also tested for DNA incorporation following 2, 4 and 24 hours exposure, at the same concentrations. All experiments were performed in duplicate. The colocalisation of nucleoside analogues and Hoechst (replicating parasites) at each time point (48, 4 and 2 hours) was compared using GraphPad Prism 5.
A CHEMICAL LABEL INCORPORATION SCRIPT developed in Columbus firstly identified Hoechst stained parasites within host cells by spot analysis, utilizing the same building block analysis as we had previously developed to determine T. cruzi infected cells. The physical definition of amastigote DNA was identified by Hoechst, with the only modification being that as there was no cytoplasmic marker, thus segmentation borders in the Hoechst channel were applied, which effectively separated host cells (Fig 2). Further building blocks were added to calculate the intensity of Alexa Fluor 488 within the spots identified by Hoechst, in infected cells. This script was first applied to images to determine the mean fluorescence intensity in the Alexa 488 channel of Hoechst identified parasites, without the addition of the chemical label. The mean plus three times the standard deviation of this intensity was used to define values above background, thus the minimum intensity above background required to identify parasite DNA which successfully incorporated the chemical label. An input box was incorporated into the script, in which this minimum intensity above background was entered. Parameters of the developed script, “CHEMICAL LABEL INCORPORATION” are shown in S1 Table.
• Number of T. cruzi amastigote infected cells (≥5 parasites per cell, identified with Hoechst). • Number of Hoechst identified T. cruzi parasites (in infected cells). • Number of parasites incorporating chemical label (T. cruzi parasites with Alexa 488 intensity above background, in infected cells). • % chemical label incorporation. Alexa 488 spots in infected cells (above background) NO / Hoechst spots in infected cells NO *100 = Percentage colocalisation; where NO = number of objects. • Number of host cells.

For assay [1], the system named is T. cruzi intracellular amastigotes. The experiment in a line: Image-based assay of the number of T. cruzi infected cells (intracellular amastigotes in 3T3 host cells). To be noted: for inhibition at 183 µM: read-out: inhibition of T. cruzi growth at highest test concentration. The class given is cell-based, Trypanosoma cruzi. As for the experimental part:
as §1
The activity of the nucleoside analogues against T. cruzi intracellular amastigotes following 24, 48 hours exposure and compound wash off, was determined using image-based techniques as previously described. Briefly, 14-point serial dilutions of the compounds in 100% DMSO were prepared and then further diluted in sterile water at a ratio of 1:21 compound: water. Five microliters of the diluted compounds were added to wells of T. cruzi infected host cells, using a MiniTrak compound handling device (Perkin Elmer, USA) with final concentrations in the plate ranging from 183 μM to 4.6 x 10^−4 μM. All experiments were performed with two separate biological replicates.
IC50 values for inhibitory activity of both the nucleoside analogues tested as DNA probes and known inhibitors tested to determine their effect on replication of T. cruzi were calculated in GraphPad Prism 5, using sigmoidal dose response with variable slope. […] The p-value for difference in the % activity at Emax concentrations for compounds with known activity (EdU identified parasites, compared to Hoechst identified parasites) against T. cruzi was determined using GraphPad Prism 5, using an unpaired student’s t-test. […] The Emax for each compound was at least two data points in from the beginning of the plateau of activity in the IC50 curve, as previously described.

Assay [2] has the same test system. The assay can be described thus: Detection of T. cruzi replication following exposure to inhibitors (EdU incorporation vs Hoechst). It counts as cell-based, Trypanosoma cruzi. To be noted: Trypanosoma cruzi; for IC50: 48 hours exposure, mean ± SD. As for the experimental part:
The addition of host cells, parasites and compounds were as described for the T. cruzi image based method previously reported. […] Addition of nuclear and cytoplasmic dyes was undertaken as previously reported and images captured on an Opera confocal image-based system at 20x magnification. Image analysis was performed with a script developed in Columbus software (CHEMICAL LABEL INCORPORATION SCRIPT). Control wells were also imaged at an increased, 60x magnification to show the distribution of staining and the structure of the parasites within host cells. Eight background control wells consisted of infected host cells, fixed and exposed to Hoechst and the click chemistry cocktail, without the addition of the chemical probe EdU. […] All images taken were not modified and were taken on an Opera, confocal image-based reader.

[3] abbreviates: 24 hours exposure, highest test concentration 183 μM.
Where [4] appears, read: 48 hours incubation, compound wash off, further 72 hours without compound, highest test concentration 183 μM.
[5] abbreviates: 48 hours incubation, highest test concentration 183 μM.
Where [6] appears, read: Trypanosoma cruzi, 48 h, 48 hours incubation.

Structures are written as SMILES. Where two headings read alike, the source gives them in different places. Bounds are passed on as bounds.

Regarding `C#Cc1cn([C@@H]2O[C@H](CO)[C@@H](O)[C@@H]2F)c(=O)[nH]c1=O` [F-ara-EdU, (2S′)-2′-deoxy-2′-fluoro-5-ethynyl-uridine], the “HEK293 IC50 value” with HEK293 cells is “NA (NA = ≤50% activity at the highest concentration tested and an IC50 value could not be determined)”. In the assay on 3T3 cells, the “Host cell 3T3 IC50 value 48 h” value is “NA (NA = ≤50% activity at the highest concentration tested and an IC50 value could not be determined)”. The “incorporation into parasite DNA following 2 hours exposure” value with T. cruzi amastigote DNA (2 hours exposure) was “No incorporation”. Further, in the assay on T. cruzi amastigote DNA (4 hours, 73 μM), the “% of T. cruzi parasites with incorporation” value is 36 ± 7.3%. In addition, the “incorporation into T. cruzi DNA following 48 hours incubation (in words)” value in the assay with T. cruzi amastigote DNA was “incorporated”. Also, the “% of parasites with analogue incorporated” value with T. cruzi amastigote DNA (48 hours, top concentration 73 μM) came to 91 ± 0.23%. Further, the “T. cruzi 24 IC50 value” in assay [1] (setting [3]) was “NA (NA = ≤50% activity at the highest concentration tested and an IC50 value could not be determined)”. Further, the “T. cruzi Wash off IC50 value” in assay [1] (setting [4]) was “NA (NA = ≤50% activity at the highest concentration tested and an IC50 value could not be determined)”. Further, the “T. cruzi 48 IC50 value” in assay [1] (setting [5]) is “NA^3 (NA = ≤50% activity at the highest concentration tested and an IC50 value could not be determined)”. The inhibition at 73 µM in assay [1] (Trypanosoma cruzi, 48 h, 73 μM, 48 hours incubation, read-out: inhibition / activity against T. cruzi amastigotes at 73 μM) was below 50%. Further, the inhibition at 183 µM in assay [1] (setting [6]) was at most 50%.
With `C#Cc1cn([C@@H]2O[C@H](CO)[C@@H](O)[C@@H]2I)c(=O)[nH]c1=O` [I-ara-EdU, (2′S)-2′-deoxy-5-ethynyl-2′-iodo-uridine], in the assay with HEK293 cells, the “HEK293 IC50 value” was “NA (NA = ≤50% activity at the highest concentration tested and an IC50 value could not be determined)”. Moreover, the “Host cell 3T3 IC50 value 48 h” value with 3T3 cells was “NA (NA = ≤50% activity at the highest concentration tested and an IC50 value could not be determined)”. Further, in the assay on T. cruzi amastigote DNA, the “incorporation into T. cruzi DNA following 48 hours incubation (in words)” value was “did not”. Moreover, in the assay on T. cruzi amastigote DNA (48 hours, concentrations up to a maximum of 73 μM), the “incorporation (no incorporation observed)” value is below 20%. Besides, the “T. cruzi 24 IC50 value” in assay [1] (setting [3]) was “NA (NA = ≤50% activity at the highest concentration tested and an IC50 value could not be determined)”. Also, in assay [1] (setting [4]), the “T. cruzi Wash off IC50 value” is “NA (NA = ≤50% activity at the highest concentration tested and an IC50 value could not be determined)”. The “T. cruzi 48 IC50 value” in assay [1] (setting [5]) was “NA (NA = ≤50% activity at the highest concentration tested and an IC50 value could not be determined)”. In assay [1] (setting [6]), the inhibition at 183 µM is at most 50%.
Turning to `CC1CS(=O)(=O)CCN1/N=C/c1ccc([N+](=O)[O-])o1` (stereo not drawn) [NFX, nifurtimox], the “HEK293 IC50 value” in the assay with HEK293 cells was “NA (NA = ≤50% activity at the highest concentration tested and an IC50 value could not be determined)”. Besides, in the assay on 3T3 cells, the “Host cell 3T3 IC50 value 48 h” value is “NA (NA = ≤50% activity at the highest concentration tested and an IC50 value could not be determined)”. Further, the “SI (selectivity index to T. cruzi intracellular amastigotes in relation to HEK293 cells)” value in assay [1] (48 hours exposure) is on record as above 143. The half-inhibitory concentration (IC50) in assay [1] (Trypanosoma cruzi, read-out: IC50 value of positive assay control in the 2 and 4 hour exposure experiment, control exposure for 48 hours) was determined as 1000 ± 101 nM; in assay [1] (Trypanosoma cruzi, 24 hours exposure, highest test concentration 183 μM, read-out: T. cruzi 24 IC50 value) it was 1720 ± 860 nM; in assay [1] (Trypanosoma cruzi, 48 hours exposure, well-established intracellular infection assay, mean ± SD, POSA value based on sub-optimal effect (Emax 75%), read-out: IC50 value Infected cells (Hoechst)) it was 800 ± 90 nM; in assay [1] (Trypanosoma cruzi, 48 hours incubation, compound wash off, further 72 hours without compound, highest test concentration 183 μM, read-out: T. cruzi Wash off IC50 value), 1410 ± 1080 nM; in assay [1] (Trypanosoma cruzi, 48 hours incubation, highest test concentration 183 μM, read-out: T. cruzi 48 IC50 value) it was 970 ± 26 nM; in assay [2] (then 0.37 μM EdU for 4 hours, number of EdU incorporating parasites, read-out: IC50 value Amastigotes (EdU)) it was 210 ± 1.8 nM. Also, the IC50 in assay [2] (number of Hoechst identified parasites in infected cells, read-out: IC50 value Amastigotes (Hoechst)) came out at 320 ± 24 nM. Further, the Emax in assay [1] (Trypanosoma cruzi, 24 hours exposure, read-out: T. cruzi 24 relative Emax (in brackets) (converted)) is 100%; in assay [1] (Trypanosoma cruzi, 48 hours incubation, wash off, further 72 hours without compound, read-out: T. cruzi Wash off relative Emax (in brackets) (converted)) it was 100%; in assay [1] (Trypanosoma cruzi, 48 hours incubation, read-out: T. cruzi 48 relative Emax (in brackets) (converted)), 100%. In addition, the inhibition at 63 µM in assay [2] (2 h, read-out: mean inhibition of incorporation of EdU into the parasite DNA) amounted to 57 ± 9.1%.

The record behind these values is publication PMC7112222, “Investigation of pyrimidine nucleoside analogues as chemical probes to assess compound effects on the proliferation of Trypanosoma cruzi intracellular parasites” (PLoS Neglected Tropical Diseases, 2020).
